Results as given in ChEMBL document CHEMBL4219086, “Development of benzoxazole deoxybenzoin oxime and acyloxylamine derivatives targeting innate immune sensors and xanthine oxidase for treatment of gout” (Bioorg Med Chem, 2018).
The source made the active and inactive calls. The rule behind the calls is not given here.

Tests used:
[1] = target: Xanthine dehydrogenase/oxidase (Homo sapiens, UniProt P47989); assay: Inhibition of Xanthine oxidase (unknown origin) using xanthine as substrate preincubated for 1 to 5 mins followed by substrate addition
Rattus norvegicus [2] = assay: (§1) Antiarthritic activity in MSU-induced acute gouty arthritis Sprague-Dawley rat model assessed as reduction in ankle swelling by measuring perimeter of ankle at 10 mg/kg, po qd pretreated via gavage for 5 days followed by MSU treatment at 1 hr post last dose measured after 4 hrs (reference value: 3.18 +/- 0.64 cm); assay type: functional
Rattus norvegicus [3] = assay: Inhibition of MSU-induced IL-1beta level in synovial homogenate of acute gouty arthritis Sprague-Dawley rat model at 10 mg/kg, po qd pretreated via gavage for 5 days followed by MSU treatment at 1 hr post last dose measured up to 24 hrs by ELISA; assay type: functional, organism-based
Rattus norvegicus [4] = assay: Inhibition of MSU-induced IL-1beta level in serum of acute gouty arthritis Sprague-Dawley rat model at 10 mg/kg, po qd pretreated via gavage for 5 days followed by MSU treatment at 1 hr post last dose measured up to 24 hrs by ELISA; assay type: functional, organism-based
Rattus norvegicus [5] = assay: Inhibition of MSU-induced NLRP3 protein level in synovial homogenate of acute gouty arthritis Sprague-Dawley rat model at 10 mg/kg, po qd pretreated via gavage for 5 days followed by MSU treatment at 1 hr post last dose measured up to 24 hrs by Western blot method; assay type: functional, organism-based
Rattus norvegicus [6] = assay: as §1, with “2” for “4”, “2.82” for “3.18”, “0.75” for “0.64”; assay type: functional
Rattus norvegicus [7] = assay: as §1, with “12” for “4”, “3.51” for “3.18”, “0.52” for “0.64”; assay type: functional
Rattus norvegicus [8] = assay: as §1, with “8” for “4”, “3.27” for “3.18”, “0.56” for “0.64”; assay type: functional
Rattus norvegicus [9] = assay: Inhibition of MSU-induced TNFalpha level in serum of acute gouty arthritis Sprague-Dawley rat model at 10 mg/kg, po qd pretreated via gavage for 5 days followed by MSU treatment at 1 hr post last dose measured up to 24 hrs by ELISA; assay type: functional, organism-based
Rattus norvegicus [10] = assay: Inhibition of MSU-induced caspase-1 protein level in synovial homogenate of acute gouty arthritis Sprague-Dawley rat model at 10 mg/kg, po qd pretreated via gavage for 5 days followed by MSU treatment at 1 hr post last dose measured up to 24 hrs by Western blot method; assay type: functional, organism-based
Rattus norvegicus [11] = assay: Inhibition of MSU-induced p65 NFkappaB protein level in synovial homogenate of acute gouty arthritis Sprague-Dawley rat model at 10 mg/kg, po qd pretreated via gavage for 5 days followed by MSU treatment at 1 hr post last dose measured up to 24 hrs by Western blot method; assay type: functional, organism-based
Rattus norvegicus [12] = assay: Inhibition of MSU-induced MyD88 protein level in synovial homogenate of acute gouty arthritis Sprague-Dawley rat model at 10 mg/kg, po qd pretreated via gavage for 5 days followed by MSU treatment at 1 hr post last dose measured up to 24 hrs by Western blot method; assay type: functional, organism-based
Rattus norvegicus [13] = assay: Inhibition of MSU-induced TLR4 protein level in synovial homogenate of acute gouty arthritis Sprague-Dawley rat model at 10 mg/kg, po qd pretreated via gavage for 5 days followed by MSU treatment at 1 hr post last dose measured up to 24 hrs by Western blot method; assay type: functional, organism-based
Rattus norvegicus [14] = assay: Inhibition of MSU-induced ASC protein level in synovial homogenate of acute gouty arthritis Sprague-Dawley rat model at 10 mg/kg, po qd pretreated via gavage for 5 days followed by MSU treatment at 1 hr post last dose measured up to 24 hrs by Western blot method; assay type: functional, organism-based
Rattus norvegicus [15] = assay: as §1, with “immediately” for “after 4 hrs”, “2.64” for “3.18”, “0.81” for “0.64”; assay type: functional
Rattus norvegicus [16] = assay: as §1, with “24” for “4”, “3.35” for “3.18”, “0.5” for “0.64”; assay type: functional
Rattus norvegicus [17] = assay: Inhibition of MSU-induced phosphorylated IkappaB protein level in synovial homogenate of acute gouty arthritis Sprague-Dawley rat model at 10 mg/kg, po qd pretreated via gavage for 5 days followed by MSU treatment at 1 hr post last dose measured up to 24 hrs by Western blot method; assay type: functional, organism-based
Rattus norvegicus [18] = assay: Inhibition of MSU-induced TNFalpha level in synovial homogenate of acute gouty arthritis Sprague-Dawley rat model at 10 mg/kg, po qd pretreated via gavage for 5 days followed by MSU treatment at 1 hr post last dose measured up to 24 hrs by ELISA; assay type: functional, organism-based
Toll-like receptor 4 = Toll-like receptor 4 (Homo sapiens, UniProt O00206); assay: Inhibition of human TLR4 signaling expressed in HEK-Blue cells co-expressing MD2/CD14 assessed as reduction in LPS-induced NF-kappaB activation-mediated SEAP production preincubated for 2 hrs followed by LPS stimulation for 20 hrs by colorimetric assay; assay type: cell-based
Mus musculus [19] = assay: Hypouricemic effect in Kunming mouse assessed as inhibition of hepatic XOD activity at 10 mg/kg, po measured after 1 hr relative to control; assay type: organism-based
Mus musculus [20] = organism: Mus musculus; settings: Kunming, 10 mg/kg
Description: Anti-hyperuricemic effect in Kunming mouse assessed as inhibition of potassium oxonate-induced serum uric acid level at 10 mg/kg, po treated 1 hr post potassium oxonate addition measured after 1 hr by phosphotungstic acid method relative to control

Mus musculus [21] = assay: In vivo inhibition of XOD activity in liver of Kunming mouse model of potassium oxonate-induced hyperuricemia at 10 mg/kg, po treated 1 hr post potassium oxonate addition measured after 1 hr relative to control; assay type: functional
[22] = target: NACHT, LRR and PYD domains-containing protein 3 (Homo sapiens, UniProt Q96P20); assay: Inhibition of NLRP3 inflammasome in human THP1 cells assessed as reduction in MSU-induced IL-1beta production preincubated for 1 hr followed by MSU stimulation measured after 6 hrs; assay type: cell-based
Chain of NACHT, LRR and PYD domains-containing protein 3 (Q96P20 whole entry, the tested form may be a part): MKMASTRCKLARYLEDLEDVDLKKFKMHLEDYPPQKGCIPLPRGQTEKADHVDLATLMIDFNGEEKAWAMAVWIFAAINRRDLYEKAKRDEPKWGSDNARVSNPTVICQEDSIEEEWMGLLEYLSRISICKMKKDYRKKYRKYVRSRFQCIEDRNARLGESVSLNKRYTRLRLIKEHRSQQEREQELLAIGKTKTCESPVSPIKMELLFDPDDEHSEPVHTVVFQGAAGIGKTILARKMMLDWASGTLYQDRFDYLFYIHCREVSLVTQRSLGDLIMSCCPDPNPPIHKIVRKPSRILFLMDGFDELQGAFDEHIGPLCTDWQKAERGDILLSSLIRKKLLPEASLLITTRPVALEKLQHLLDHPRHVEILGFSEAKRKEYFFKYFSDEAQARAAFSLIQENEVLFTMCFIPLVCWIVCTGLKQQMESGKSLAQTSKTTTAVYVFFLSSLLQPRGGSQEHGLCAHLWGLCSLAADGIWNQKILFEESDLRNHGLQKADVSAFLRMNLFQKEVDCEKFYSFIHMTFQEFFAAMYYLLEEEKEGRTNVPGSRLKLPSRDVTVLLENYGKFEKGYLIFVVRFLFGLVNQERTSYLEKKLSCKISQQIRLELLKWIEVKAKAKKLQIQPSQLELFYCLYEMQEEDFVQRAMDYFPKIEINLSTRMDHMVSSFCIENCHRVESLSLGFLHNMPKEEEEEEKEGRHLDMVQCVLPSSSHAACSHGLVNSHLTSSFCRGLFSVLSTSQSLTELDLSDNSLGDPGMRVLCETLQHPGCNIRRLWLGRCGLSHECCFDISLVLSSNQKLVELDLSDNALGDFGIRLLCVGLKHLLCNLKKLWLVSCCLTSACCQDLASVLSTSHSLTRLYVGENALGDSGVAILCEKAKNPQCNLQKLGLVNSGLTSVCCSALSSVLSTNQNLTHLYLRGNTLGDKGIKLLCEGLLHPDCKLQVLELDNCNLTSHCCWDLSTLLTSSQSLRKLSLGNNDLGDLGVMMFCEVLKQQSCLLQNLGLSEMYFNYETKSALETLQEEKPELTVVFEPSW

Chain of Toll-like receptor 4 (O00206 whole entry): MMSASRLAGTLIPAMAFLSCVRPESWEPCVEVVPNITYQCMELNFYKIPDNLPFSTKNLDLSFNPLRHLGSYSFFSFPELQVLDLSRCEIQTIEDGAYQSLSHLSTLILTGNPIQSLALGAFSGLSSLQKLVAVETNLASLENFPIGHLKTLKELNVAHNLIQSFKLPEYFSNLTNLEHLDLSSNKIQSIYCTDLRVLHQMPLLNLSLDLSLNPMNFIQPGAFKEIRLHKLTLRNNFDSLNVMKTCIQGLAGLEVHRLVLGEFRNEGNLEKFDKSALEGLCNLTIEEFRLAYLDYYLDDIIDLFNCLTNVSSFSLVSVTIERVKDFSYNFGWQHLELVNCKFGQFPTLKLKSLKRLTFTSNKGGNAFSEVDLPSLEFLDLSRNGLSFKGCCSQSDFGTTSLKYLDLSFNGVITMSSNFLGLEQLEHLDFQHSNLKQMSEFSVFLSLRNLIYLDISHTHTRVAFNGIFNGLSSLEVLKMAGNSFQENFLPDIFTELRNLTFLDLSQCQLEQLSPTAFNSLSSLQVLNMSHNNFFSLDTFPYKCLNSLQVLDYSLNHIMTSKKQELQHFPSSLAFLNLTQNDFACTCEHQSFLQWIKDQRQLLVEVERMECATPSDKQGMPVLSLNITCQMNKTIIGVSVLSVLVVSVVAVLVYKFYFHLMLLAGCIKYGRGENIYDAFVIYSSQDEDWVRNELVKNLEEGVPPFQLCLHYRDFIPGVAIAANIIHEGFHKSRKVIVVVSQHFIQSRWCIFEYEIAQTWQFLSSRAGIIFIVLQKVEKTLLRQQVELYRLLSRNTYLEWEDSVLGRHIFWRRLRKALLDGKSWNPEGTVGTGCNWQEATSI
Chain of Xanthine dehydrogenase/oxidase (P47989 whole entry): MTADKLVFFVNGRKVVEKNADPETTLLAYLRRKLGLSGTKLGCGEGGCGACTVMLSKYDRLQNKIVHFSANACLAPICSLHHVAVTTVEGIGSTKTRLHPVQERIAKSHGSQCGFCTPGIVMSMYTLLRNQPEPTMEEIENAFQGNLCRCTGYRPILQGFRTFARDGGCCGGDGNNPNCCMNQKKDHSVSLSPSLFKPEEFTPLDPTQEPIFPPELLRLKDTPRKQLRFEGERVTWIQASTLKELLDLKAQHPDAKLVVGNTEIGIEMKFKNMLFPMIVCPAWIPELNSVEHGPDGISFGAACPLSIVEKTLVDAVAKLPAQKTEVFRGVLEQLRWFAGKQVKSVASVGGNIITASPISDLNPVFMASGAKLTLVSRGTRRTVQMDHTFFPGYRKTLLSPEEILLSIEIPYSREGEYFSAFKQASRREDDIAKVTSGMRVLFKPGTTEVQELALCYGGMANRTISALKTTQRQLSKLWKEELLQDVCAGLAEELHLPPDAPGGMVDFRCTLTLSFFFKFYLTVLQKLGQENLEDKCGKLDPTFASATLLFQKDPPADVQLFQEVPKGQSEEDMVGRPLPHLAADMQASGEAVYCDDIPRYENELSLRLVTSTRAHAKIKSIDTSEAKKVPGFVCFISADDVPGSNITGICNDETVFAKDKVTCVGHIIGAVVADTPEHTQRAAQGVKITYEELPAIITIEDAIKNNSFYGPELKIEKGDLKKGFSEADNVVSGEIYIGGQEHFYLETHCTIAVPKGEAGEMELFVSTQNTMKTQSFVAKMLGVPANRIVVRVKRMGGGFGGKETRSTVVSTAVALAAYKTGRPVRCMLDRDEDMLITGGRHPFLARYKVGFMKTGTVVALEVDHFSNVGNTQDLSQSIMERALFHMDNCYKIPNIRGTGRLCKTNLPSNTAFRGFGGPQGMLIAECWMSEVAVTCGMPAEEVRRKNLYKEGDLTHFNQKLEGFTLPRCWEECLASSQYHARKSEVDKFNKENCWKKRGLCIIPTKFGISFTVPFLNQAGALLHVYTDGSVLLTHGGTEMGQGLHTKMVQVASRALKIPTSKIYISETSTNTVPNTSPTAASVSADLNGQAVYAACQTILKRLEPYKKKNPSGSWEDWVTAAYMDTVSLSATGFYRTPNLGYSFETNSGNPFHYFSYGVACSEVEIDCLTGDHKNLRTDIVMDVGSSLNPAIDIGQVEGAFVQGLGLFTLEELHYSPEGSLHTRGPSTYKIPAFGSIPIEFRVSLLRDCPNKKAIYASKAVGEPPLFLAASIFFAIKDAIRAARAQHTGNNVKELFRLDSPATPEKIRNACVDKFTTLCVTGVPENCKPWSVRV

Compound: O/N=C(\Cc1ccc(F)cc1)c1nc2ccc(Br)cc2o1
- IC50 [1]: > 100 µM

Compound: COc1cc2c(c(OC)c1OC)-c1ccc(OC)c(=O)cc1[C@@H](NC(C)=O)CC2 [COLCHICINE]
- Activity (Rattus norvegicus [2]): 2.81 cm
- inhibition (Rattus norvegicus [3]): Active
- inhibition (Rattus norvegicus [4]): Active
- inhibition (Rattus norvegicus [5]): Active
- Activity (Rattus norvegicus [6]): 2.73 cm
- Activity (Rattus norvegicus [7]): 2.8 cm
- Activity (Rattus norvegicus [8]): 2.77 cm
- inhibition (Rattus norvegicus [9]): Active
- inhibition (Rattus norvegicus [10]): Active
- inhibition (Rattus norvegicus [11]): Active
- inhibition (Rattus norvegicus [12]): Active
- inhibition (Rattus norvegicus [13]): Active
- inhibition (Rattus norvegicus [14]): Active
- Activity (Rattus norvegicus [15]): 2.49 cm
- Activity (Rattus norvegicus [16]): 2.79 cm
- inhibition (Rattus norvegicus [17]): Active
- inhibition (Rattus norvegicus [18]): Active

Compound: O/N=C(\Cc1ccc(F)cc1)c1nc2ccc(Cl)cc2o1
- IC50 [1]: > 100 µM

Compound: O/N=C(\Cc1ccc(F)cc1)c1nc2cc(Cl)ccc2o1
- IC50 [1]: > 100 µM

Compound: Cc1ccc2nc(/C(Cc3ccccc3)=N/O)oc2c1
- IC50 (Toll-like receptor 4): 19.3 µM

Compound: Oc1ncnc2[nH]ncc12 [ALLOPURINOL]
- inhibition at 10 mg/kg (Mus musculus [19]): 27.9%
- inhibition (Mus musculus [20]): Active
- inhibition in vivo at 10 mg/kg (Mus musculus [21]): 47.1%

Compound: Cc1ccc2oc(/C(Cc3ccc(F)cc3)=N/O)nc2c1
- IC50 (Toll-like receptor 4): 45.7 µM

Compound: COc1ccccc1C(=O)O/N=C(\C)c1nc2ccccc2o1
- IC50 [22]: 39.5 µM
- IC50 [1]: 15.2 µM
- IC50 (Toll-like receptor 4): 25.9 µM

Compound: O=C(/C=C/c1ccc(O)cc1)c1ccc(O)cc1O [ISOLIQUIRITIGENIN]
- IC50 [22]: 1.54 µM

Compound: CCOC(=O)C1=CCCC[C@H]1S(=O)(=O)Nc1ccc(F)cc1Cl [RESATORVID]
- IC50 (Toll-like receptor 4): 0.68 µM

Compound: COc1ccc(C/C(=N\O)c2nc3ccc(Cl)cc3o2)cc1
- IC50 [22]: 5.72 µM
- IC50 [1]: 17.8 µM
- IC50 (Toll-like receptor 4): 5.42 µM

Compound: O/N=C(\Cc1ccccc1)c1nc2ccc(Br)cc2o1
- IC50 [1]: > 100 µM
